Laboratory results taken from patent EP3514141A1, “MAGNETIC MOLECULES” (Centre National de la Recherche Scientifique, priority 2018, dated 2019).

Legend:
Assay type in all cases: physicochemical
[1] = Magnetic susceptibility by the Evans method (1H NMR shift of residual CDCl3 proton); conditions: solution in CDCl3; for χmass: mass susceptibility; for χmol: molar susceptibility, χmol = MW*χmass
Description: For the prepared molecules of structure (I) in table 2 below, the paramagnetic properties have been evaluated by the Evans method [D.F. Evans, J. Chem. Soc. 2003 (1959)]. This is based on nuclear magnetic measurements (NMR), and relies on the fact that the chemical shift (position) of the ^1H NMR signals of a molecule depend on the bulk susceptibility of the medium. In particular, the resonance line of the residual proton of CDCl3 (i.e. the NMR solvent) was used as a reference, by comparing its chemical shift for the pure CDCl3 and for a solution containing the molecules of structure (I).
As expected the mass susceptibility of the different complexes (molecules of structure (I)) vary depending on mass ratio between the paramagnetic ion (e.g. Ho^3+) and the organic DTPA-ligand (thus, it is smaller for the bigger ligands). […] Magnetism and magnetic materials. Cambridge University Press, 2010]

[2] = Verdet coefficient measurement (magneto-optic, Faraday effect); conditions: 1 M aqueous solution (control)
Method: The composition is prepared according to example 5.1 but using isofol 12 to obtain a weight fraction of 23 % w/w of isofol 12, where Tb^3+ is used as the paramagnetic ion in structure (I). The Verdet coefficient was determined to be 17.1 rad T^-1 m^-1 at 410 nm wavelength, and 8.0 rad T^-1 m^-1 at 600 nm. As a control a 1 M TbCl3 aqueous solution was measured using the same method resulting in a Verdet coefficient of 14.1 rad T^-1 m^-1 at 410 nm wavelength, and 4.9 rad T^-1 m^-1 at 600 nm in agreement with literature.

[3] = Preparation of paramagnetic oil with paraffin (mineral) oil; conditions: typically 10-30 wt%, as co-component
Method: The complex 3 (molecules of structure (I)) is dissolved in the minimum amount of dichloromethane, so to have a homogeneous solution, after that a fatty alcohol (e.g. isofol® 12) is added (typically 10-40 wt%), and the resultant mixture rotary evaporated under high vacuum to completely eliminate the volatile dichloromethane, resulting in the target homogeneous transparent paramagnetic oil.
The composition is prepared according to example 5.1 but using paraffin (mineral) oil (typically 10-30 wt%) as co-component instead of the fatty alcohol.
This method is particularly suitable when using complexes with long chains (preferably more than 8 carbon atoms).

In the case of `CC(=O)[O-].CC(=O)[O-].CC(=O)[O-].O.[Ho+3]` [Ho(AcO)3 *nH2O, reference compound], the χmass [1] is reported as 11.0 (cm^3 g^-1) /10-5 and the χmol [1] is reported as 0.037 cm^3 mol^-1.

Work on `[Cl][Tb]([Cl])[Cl]` [TbCl3] yielded a Verdet coefficient ([2]; 410 nm wavelength) of 14.1 rad T^-1 m^-1 and a Verdet coefficient ([2]; 600 nm) of 4.9 rad T^-1 m^-1.

For Ho-DTPA-(1-octadecanol)2, the “appearance of composition with mineral oil” value [3] was “homogeneous transparent fluid reacting to magnetic fields”.

For Ho-DTPA-(2-butyl-1-octanol)2, the χmass [1] was 4.98 (cm^3 g^-1) /10-5 and the χmol [1] was 0.0350 cm^3 mol^-1.

For Ho-DTPA-(2-octyl-1-dodecanol)2, the χmass [1] was 3.72 (cm^3 g^-1) /10-5 and the χmol [1] was 0.0415 cm^3 mol^-1.

In the case of Ho-DTPA-(3,7-dimethy-1-octanol)2, the χmass [1] is reported as 5.05 (cm^3 g^-1) /10-5 and the χmol [1] is reported as 0.0422 cm^3 mol^-1.

With Ho-DTPA-(hexanol)2 the χmass [1] was 6.04 (cm^3 g^-1) /10-5 and the χmol [1] was 0.0437 cm^3 mol^-1.
